From patent publication US20030236399A1, “Method of improving the quality of taste of natural sweetner” (Shangdong Hua Xian Stevia Co., Ltd., priority 2002, published 2003)

How the values were obtained:
[1] = Dissolving under ambient temperature, before and after the process; format: physicochemical
Description: Comparisons have been made between the natural sweetener before and after the process of the present invention and the results are illustrated as follow: […]

[2] = high temperature, high acidity and high alkalinity; cited from earlier work
[3] = background statement; cited from earlier work

Row | Compound | Solubility under ambient temperature ([1]; Sweetness equivalent to 5% sucrose solution) | Solubility under ambient temperature ([1]; Sweetness equivalent to 10% sucrose solution) | Stability of structure [2] | Sweetness level relative to sucrose [3] | Solubility under ambient temperature ([1]; Sweetness equivalent to 15% sucrose solution)
1 | C=C1C[C@@]23CC[C@H]4[C@@](C)(CCC[C@@]4(C)C(=O)O[C@@H]4O[C@H](CO)[C@@H](O)[C@H](O)[C@H]4O)[C@@H]2CC[C@]1(O[C@@H]1O[C@H](CO)[C@@H](O)[C@H](O)[C@H]1O[C@@H]1O[C@H](CO)[C@@H](O)[C@H](O)[C@H]1O)C3 [stevioside] | insoluble under ambient | insoluble under ambient | stable in structure | 200-300 times higher than that of sucrose | –
2 | α-glycosyl stevioside | – | – | – | – | taste, easy to dissolve under
